These results are taken from ChEMBL document CHEMBL1157539, “Thousands of chemical starting points for antimalarial lead identification” (Nature, 2010).

The subject of this assay is Plasmodium falciparum. In words: GSK_TCMDC: Inhibition of Plasmodium falciparum 3D7 in whole erythrocytes, using parasite LDH activity as an index of growth. Format: functional, organism-based.

For the molecule `COc1ccc(CNCc2ccsc2)cc1-c1ccc(OC)c(S(=O)(=O)NCCN2CCCC2)c1`, the XC50 (Plasmodium falciparum, 3D7) was determined as 917 nM.
Same read-out and setting: the value for `CCCc1cc(C(=O)N[C@@H](Cc2ccccc2)[C@H](O)CNC(C)(C)c2cccc(OC)c2)c(F)c(N2CCCC2=O)c1` was 95.7 nM; that for `Cc1nc2ccc(-c3nc4cc(N)ccc4[nH]3)cc2[nH]1` was 233 nM; that for `Cn1c(N)cc(-c2cccc(I)c2)c2c(=O)nc(N)nc1-2` was 269 nM.
The molecule `O=[N+]([O-])c1cccc(S(=O)(=O)N2CCN(CC(O)COc3ccc(-c4ccccc4)cc3)CC2)c1` (configuration not stated) registered an XC50 (Plasmodium falciparum, 3D7) of 1360 nM.
In turn, `Cc1cc2cc(NC(=O)Nc3ccnc4ccccc34)ccc2n1C` yielded an XC50 (Plasmodium falciparum, 3D7) of 1090 nM.
Still for that read-out and setting: the value for `COc1ccc(-c2nc(NCc3ccccc3)c3cc(OC)c(OC)cc3n2)cc1` was 398 nM; that for `COC(=O)c1cccc(N2CCN(CCCNC(=O)/C(=C/C=C/c3cc4cc(Cl)c(Cl)cc4[nH]3)OC)CC2)c1` was 667 nM; that for `COc1ccc2nccc([C@@H](O)CN3CCC(NCCOc4ccc(F)cc4Cl)CC3)c2c1` was 276 nM.
Same read-out and setting: the value for `CC(C)c1ccc(NC(=O)N[C@H]2CCN(CCCCCNC(=O)/C=C/c3ccc(Cl)c(Cl)c3)C2)cc1` was 710 nM.
The same measure, in the same setting: then `CNCCNCc1cccc(-c2ccc(-c3nc4cccc(C)c4[nH]3)cc2)c1`, with 798 nM; and `CC(=O)Nc1ccc(CN2CCC(N(C)c3cc(NC(=O)c4cccs4)ccn3)CC2)cc1`, with 892 nM.
With `CNCCNCc1ccc(-c2ccc(-c3nc4cc(F)ccc4[nH]3)s2)cc1`, the XC50 (Plasmodium falciparum, 3D7) came out at 772 nM.
Same read-out and setting: then `Nc1ncc(-c2ccsc2)c2ccc(-c3ccc4cn[nH]c4c3)cc12`, with 814 nM; and `CNC(=O)c1ccccc1Nc1nc(Nc2ccc(CCN3CCN(C)CC3)cc2)ncc1Cl`, with 651 nM.
For the molecule `OCCN1CCN(Cc2cccc(-c3ccc(-c4nc5cc(C(F)(F)F)ccc5[nH]4)cc3)c2)CC1`, the XC50 (Plasmodium falciparum, 3D7) was 559 nM.
For `Cc1ccc(/C=C/C(=O)NC2CCC(CN3CCC(c4c[nH]c5ccccc45)CC3)CC2)cc1C` (configuration not stated), the XC50 was 821 nM. The molecule further gave an XC50 (Plasmodium falciparum, 3D7) of 832 nM.
`CCOc1cc(C)ccc1N1CCN(CCN2CCC(NC(=O)c3ccc(-c4ccc(C#N)cc4)cc3)CC2)CC1` registered an XC50 (Plasmodium falciparum, 3D7) of 1430 nM.
Still for that read-out and setting: then `O=C(Nc1ccc2c(c1)OCO2)NC1CCN(c2ccnc(NCc3ccc(F)cc3)n2)CC1`, with 943 nM.
On the same count and under the same terms, the value for `CN(CCCNc1ccc(C(=O)Nc2ccc(C(F)(F)F)cc2)cc1[N+](=O)[O-])Cc1ccccc1` was 229 nM; that for `CCCc1cc(O)c2c3c(c(=O)oc2c1)CN(C)CC3` was 873 nM.
`Cc1cccc(-c2cccc3c(NC(=O)N4CCc5cc6nccc(N7CCN8CCC[C@H]8C7)c6cc54)cccc23)n1` registered an XC50 (Plasmodium falciparum, 3D7) of 916 nM.
The molecule `Cc1cc(N2CCN(C3CCCCC3)CC2)nc2cccc(O)c12` registered an XC50 (Plasmodium falciparum, 3D7) of 701 nM.
Consider `CC(=O)Nc1nc(C(=O)Nc2ccc(-c3ccc(-c4nc5cc(F)ccc5[nH]4)cc3)cc2)cs1`, for which, where the note is “Plasmodium falciparum, 3D7”, the XC50 came to 460 nM.
In turn, `COC(=O)c1ccc(CC(C)NCC(O)c2cccc(Oc3cccc(C(F)(F)F)c3)c2)cc1` (configuration not stated) returned an XC50 (Plasmodium falciparum, 3D7) of 1170 nM.
Under “Plasmodium falciparum, 3D7”, `COC(=O)c1ccc2c(-c3nc4ccc(OC)cc4[nH]3)c[nH]c2c1` gave an XC50 of 876 nM.
In turn, `CS(=O)(=O)Cc1cccc(Nc2ncc(Cl)c(Nc3cccnc3C(N)=O)n2)c1` registered an XC50 (Plasmodium falciparum, 3D7) of 168 nM.
`CN(C)c1ccc(C=CC(=O)NC(=O)c2ccccc2O)cc1` had an XC50 (Plasmodium falciparum, 3D7) of 227 nM.
On to `COc1ccc(CC(=O)Nc2ccc(Nc3nc(C)cc(N(C)C)n3)cc2)cc1`, for which the XC50 (Plasmodium falciparum, 3D7) is 790 nM.
On the same count and under the same terms, then `CNC(=O)c1cnc(Nc2ccc(OCC(O)CN(C)C)cc2)nc1Nc1cccc(OC(C)C)c1` (configuration not stated), with 137 nM; and `COc1ccc2cc(-c3nc(-c4c(Cl)cccc4Cl)[nH]c3-c3ccnc(NCCC4CCCN4C)c3)ccc2c1` (configuration not stated), with 1030 nM.
The same measure, in the same setting: the value for `COc1cc(NC(=O)/C=C/c2cc(F)cc(F)c2F)cc(OCCN2CCN(CCN3CCOCC3)CC2)c1` was 771 nM; that for `COc1ccc2nc(-c3ccc(C(=O)NCCCN4CCN(c5cc(Cl)ccc5OC)CC4)cc3OC)[nH]c2c1` was 872 nM; that for `CCCCNC(=O)[C@@H]1CCCN1C(=O)c1ccc(O)c(-c2ccc(Cl)c(Cl)c2)c1` was 751 nM.
Still for that read-out and setting: the value for `CC(C)(C)c1ccc2nccc(Nc3cccc(O)c3)c2c1` was 973 nM; that for `O=C(Nc1ccc(F)cc1)c1nc2ccccc2nc1Cl` was 1230 nM.
`CC(C)(CNC(=O)C1CCN(CC2CCCCC2)CC1)c1nc(-c2ccc(Cl)c(O)c2)c(-c2ccncc2)[nH]1`: the XC50 (Plasmodium falciparum, 3D7) was determined as 888 nM.
The same measure, in the same setting: the value for `CCCN(CCC)S(=O)(=O)c1ccc(C(=O)N2CCC(C(=O)OCC)CC2)cc1` was 803 nM.
`COc1ccc(Cl)cc1NC(=O)Nc1ccnc2ccccc12` returned an XC50 (Plasmodium falciparum, 3D7) of 675 nM.
The same measure, in the same setting: then `COc1cc(C=CC(=O)N2CCC(CCN3CCC(c4c[nH]c5ccccc45)CC3)CC2)cc(OC)c1`, with 909 nM.
Same read-out and setting: then `O=C(NCc1cccc(Br)c1)c1ccc(CNC2CCN(Cc3ccccc3)CC2)cc1`, with 875 nM; and `CC(C)Cn1c(Sc2ccc(C#N)c([N+](=O)[O-])c2)nnc1-c1cccs1`, with 1080 nM; and `CN(CCC1CCN(C(=O)/C=C/c2ccc(Cl)c(Cl)c2)CC1)C1CCC(c2c[nH]c3ccccc23)CC1` (configuration not stated), with 774 nM.
The molecule `CCOC(=O)C(C)(C)Oc1ccc(CN(Cc2ccc(CC(C)C)cc2)C(=O)Nc2ccc(F)cc2F)c(OC)c1` gave an XC50 (Plasmodium falciparum, 3D7) of 238 nM.
The same measure, in the same setting: the value for `CN(C)c1ccc(NC2=NC(N)=NC(C)(C)N2)cc1` was 223 nM; that for `CNc1nc(Nc2ccccc2C)nc2ccccc12` was 443 nM.
For the setting “Plasmodium falciparum, 3D7”, `CC1(C)Cc2c(oc3ncn(CCn4cnc5oc6c(c5c4=N)CC(C)(C)SC6)c(=N)c23)CS1` yielded an XC50 of 719 nM.
Turning to `COc1ccc(NC(=O)[C@H](CC(C)C)Nc2ccnc(NCCc3ccc(F)cc3)n2)cc1`, for the setting “Plasmodium falciparum, 3D7”, the XC50 was 1600 nM.
`COC(=O)c1ccccc1COc1ccc(CC2(NC(=O)[C@H](Nc3ccc(C#N)c4ccccc34)C(C)(C)C)CCCC2)cc1`: for the setting “Plasmodium falciparum, 3D7”, the XC50 was found to be 856 nM.
Same read-out and setting: then `CCOC(=O)c1ccc(N2CCN(c3cc(Cl)ccc3C)CC2)c(NC(=O)Nc2ccc(Cl)c(Cl)c2)c1`, with 584 nM.
As for `CCNc1cc(C)nc(Nc2ccc(NC(=O)c3ccco3)cc2)n1`, the XC50 (Plasmodium falciparum, 3D7) worked out at 1090 nM.
Still for that read-out and setting: the value for `O=C(C=Cc1ccc(Cl)c(Cl)c1)NCCCCCN1CCC(CCNC(=O)C(c2ccccc2)c2ccccc2)CC1` was 1010 nM.
The same measure, in the same setting: the value for `Oc1ccccc1-c1nc2cccnc2n1CCc1cccc(C(F)(F)F)c1` was 1270 nM; that for `Oc1cc(Nc2ccnc3ccc(I)cc23)c(F)cc1Cl` was 1230 nM.
The same measure, in the same setting: the value for `NCc1ccc(CNCc2ccc(-c3ccc(-c4nc5cc(C(F)(F)F)ccc5[nH]4)s3)cc2)cc1` was 157 nM.
With `CSCCCN1CCC(O)(c2ccc3oc(C(=O)Nc4ccc5sc(C)nc5c4)cc3c2)CC1`, the XC50 (Plasmodium falciparum, 3D7) was 1070 nM.
The same measure, in the same setting: then `Nc1nc(N)c2c(n1)CCC(c1ccccc1)C2` (configuration not stated), with 1010 nM.
As for `CC(=O)N1N=C(c2ccccc2)Sc2c1nc(-c1ccc(Cl)cc1)n2C(C)=O`, the XC50 (Plasmodium falciparum, 3D7) was 986 nM.
The same measure, in the same setting: the value for `CC(=O)Nc1ccc(CN2CCc3ccc(NS(=O)(=O)c4cccc(OCc5ccc(Cl)cc5)c4)cc3CC2)s1` was 906 nM; that for `CCc1ccc(OCCCON2C(=N)N=C(N)NC2(C)C)cc1` was 3.2 nM.
`COc1ccc2ncc(F)c(CCN3CC[C@@H](CNCc4cc5c(cn4)OCS5)C3)c2n1`: for the setting “Plasmodium falciparum, 3D7”, the XC50 was determined as 1160 nM.
The molecule `Cc1cccc(Cl)c1Nc1nnc(-c2cccc(C(=O)NC[C@@H]3CC[C@H]4C[C@@H]3C4(C)C)c2)o1` came in with an XC50 (Plasmodium falciparum, 3D7) of 273 nM.
Still for that read-out and setting: then `CCOc1ccc(-c2nonc2NC(=O)c2ccccc2Cl)cc1OCC`, with 742 nM; and `C=CC[C@H](C[C@H](O)[C@H](Cc1ccccc1)NC(=O)c1nn(-c2ccccc2)nc1C)C(=O)NC1CCCCC1`, with 915 nM; and `CN1CCN(c2nc(NCCNc3ccc([N+](=O)[O-])cc3)c3ccccc3n2)CC1`, with 1320 nM.
Under “Plasmodium falciparum, 3D7”, `COc1ccc(-n2c(=O)c3c(n4c(SC(C)C)nnc24)-c2ccccc2CC32CCCCC2)cc1` had an XC50 of 502 nM.
Turning to `CCNc1cc(C(=O)N[C@@H](Cc2ccccc2)[C@H](O)CNC(C)(C)CSCC(C)C)cc(N2CCCC2=O)c1`, for the setting “Plasmodium falciparum, 3D7”, the XC50 was 260 nM.
Still for that read-out and setting: then `COc1ccc2nc(C)cc(Nc3ccc(N4CCN(C)CC4)cc3)c2c1`, with 788 nM.
`COc1cc(-n2c(CN3CCCC3)nc3cc(-c4ccc(Cl)cc4)sc3c2=O)ccc1OCCN1CCCC1`: the XC50 (Plasmodium falciparum, 3D7) is 1040 nM.
The molecule `CC(C)Oc1ccc(CCCON2C(=N)N=C(N)NC2(C)C)cc1` registered an XC50 (Plasmodium falciparum, 3D7) of 3.2 nM.
On the same count and under the same terms, the value for `CCC1CN2CCc3cc(OC)c(OC)cc3C2CC1CC1NCCc2c1[nH]c1ccc(O)cc21` (configuration not stated) was 103 nM; that for `CCN(CC)CCNc1ccnc2[nH]c3ccc(Cl)cc3c12` was 245 nM.
The same measure, in the same setting: the value for `CCCCCN1CCCC1CNS(=O)(=O)c1cccc(C(=O)Nc2cccc(C#N)c2)c1` (configuration not stated) was 978 nM; that for `CC(=NO)C1=C(O)C(c2ccccc2)N(c2ccccc2)C1=O` (configuration not stated) was 701 nM; that for `CN1CCCC(COc2cc3c(cc2Br)CCN3C(=O)Nc2ccc(-c3ccncc3)c(Cl)c2)C1` (configuration not stated) was 234 nM.
Still for that read-out and setting: the value for `COCCN1CCC(CNCC(C)(C)c2nc(-c3ccc(Cl)c(O)c3)c(-c3ccncc3)[nH]2)CC1` was 753 nM.
`CCC1(C)N=C(N)N=C(N)N1c1ccc(Cl)cc1` (configuration not stated) showed an XC50 (Plasmodium falciparum, 3D7) of 159 nM.
Same read-out and setting: the value for `CN(Cc1cccc(O)c1)C1CCN(c2cc(NC(=O)c3ccc(F)cc3)ccn2)C1` (configuration not stated) was 1150 nM; that for `Cc1ccc(C2(CN3CCC(NC(=O)c4cc[nH]n4)CC3)CCCCC2)cc1` was 225 nM.
Molecule `CCOC(=O)NC1=NC(=N)N(OCCCOc2cc(Cl)c(Cl)cc2Cl)C(C)(C)N1` showed an XC50 (Plasmodium falciparum, 3D7) of 3.2 nM.
On the same count and under the same terms, then `Cc1cc(-c2ncc[nH]2)ccc1-c1ccc(C(=O)N2CCc3cc4c(cc32)C2(CCN(C)CC2)CO4)cc1`, with 800 nM; and `O=c1c2ccc(F)cc2sn1-c1ccc(Cl)cc1`, with 1150 nM.
Take `COc1ccc(Cc2c(Cl)nc3nc(N)nc(N)c3c2C)cc1`: the XC50 (Plasmodium falciparum, 3D7) was 1090 nM.
Consider `CCC(C)c1ccc(NC(=O)C(C)c2ccc([N+](=O)[O-])cc2)cc1` (configuration not stated), for which, where the note is “Plasmodium falciparum, 3D7”, the XC50 turned out to be 176 nM.
The same measure, in the same setting: then `Clc1ccc(-c2cc3c(NCc4ccncc4)nccc3s2)cc1`, with 852 nM; and `Cc1ccc2c(=O)cc(CCc3cccc(F)c3F)n(CC(=O)N(Cc3ccc(-c4ccc(C(F)(F)F)cc4)cc3)C3CCN(C)CC3)c2n1`, with 1260 nM.
